Experimental data: PubChem BioAssay AID1117319 (Southern Research Institute, 2015)
Records with an inconclusive call do not appear.

Biological target: Virion infectivity factor (Human immunodeficiency virus type 1 group M subtype B (isolate BH10)) + Virion infectivity factor (Human immunodeficiency virus type 1 group M subtype B (isolate BRU/LAI)) + Virion infectivity factor (Human immunodeficiency virus type 1 group M subtype B (isolate PCV12)) + Virion infectivity factor (Human immunodeficiency virus type 1 group M subtype B (isolate HXB2)) + DNA dC->dU-editing enzyme APOBEC-3G (Homo sapiens) (UniProt P69720+P69721+P69722+P69723+Q9HC16)
Experiment: HIV-1 Vif–A3G interaction blockers – biochemical, TR-FRET, GST-Vif 1-94, biotin-A3G peptide, dose response retest, primary screen (AID 1117319);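 also: Vif residues 1-94 fused to GST binding biotinylated APOBEC3G peptide 110-148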
Details: TR-FRET GST-Vif / biotin-A3G peptide binding

SMILES | IC50 [µM]
O=C(CSc1nnnn1-c1ccccc1)Nc1ncc2c(n1)CC(c1ccco1)CC2=O (stereo unspecified) | 12.6
O=C(NCCO)c1ccc2nc(-c3ccco3)c(-c3ccco3)nc2c1 | 0.88
Cc1n[nH]c(=S)n(NC(=O)/C=C/C(=O)Nn2c(=S)[nH]nc(C)c2=O)c1=O | 2.38
COc1ccccc1-n1c(SCC(=O)NCc2ccc3c(c2)OCO3)nc2cc([N+](=O)[O-])ccc21 | 22.7
NS(=O)(=O)c1ccc(N=Nc2c[nH]c(=O)c(O)c2)cc1 | 4.08
Nc1nc(-c2ccco2)c(-c2ccco2)s1 | 0.83
O=C(Nc1ccc(Br)cn1)c1coc(=O)c(Br)c1 | 13
COc1ccccc1C1CC(=O)Nc2c1c(=O)n(C)c(=O)n2C (stereo unspecified) | 70.4
O=C(NC(=S)Nc1cccc(S(=O)(=O)NC2=NCCC2)c1)c1cc(-c2ccco2)nc2ccccc12 | 8.99
COc1ccccc1/C=C(/CC(=O)NCc1ccccc1)c1nc2ccccc2s1 | 45.3
COc1cc2c3c(c1OC)C1(C=CC(=O)C=C1)CC3N(C(=O)CCC(=O)O)CC2 (stereo unspecified) | 13.3
CSc1ccc(/C=N/Nc2cccc(C(=O)O)c2)cc1 | 11.2
O=C(/C=C/Nc1ccccc1Br)c1ccccn1 | 41.5
CCOc1ccccc1C(O)C1=CC(=O)c2ccccc2C1=O (stereo unspecified) | 7.61
CC(C)Nc1ccc(Nc2ccccc2)cc1 | 9.18
Oc1ccc(N=Cc2ccc(OCc3ccccc3)cc2)cc1 | 2.11
O=C(O)CCCN1C(=O)/C(=C\C(Cl)=C\c2ccccc2)SC1=S | 2.45
Cc1cc(O)c(-c2cc(O)c(C)cc2O)cc1O | 8.44
COc1ccccc1NC(=O)c1oc2ccc(C)cc2c1C | 98
Cc1ccc(C)n1/N=C1/NC(=O)CS1 | 0.9
CCN(CC)c1ccc(N=Cc2c(O)n(-c3ccc(Cl)cc3)c(=O)[nH]c2=O)cc1 | 37.6
CC(=O)NCc1c(Cl)cccc1-n1cccc1 | 72.7
CCC1=NN2C(=N)/C(=C\c3cccn3-c3cccc(Cl)c3)C(=O)N=C2S1 | 94.9

SMILES | IC50 [µM]
N=C1S/C(=C\c2ccco2)C(=O)N1c1ccc2c(c1)OCO2 | 9.26
O=C(NCc1ccccc1Cl)c1csc2c1CCCCC2 | 8.35
Cc1ccc2c(c1)c1ccc3c(c1n2C)C(=O)C=CC3=O | 3.94
N#Cc1c(-c2ccco2)c2c([nH]c1=S)CCCC2 | 12.1
O=C(/C=C/c1ccco1)c1cccnc1 | 14.1
Cc1ccc(-n2nc(C)c(C3C(C#N)=C(N)Oc4c3c(=O)oc3ccccc43)c2Cl)cc1 (stereo unspecified) | 11.1
CCn1cc(CNC(=O)c2ccc(Cl)c([N+](=O)[O-])c2)c(C)n1 | 15.7
CCc1ccc(N2C(=O)NC(=O)/C(=C\C=C\c3ccco3)C2=O)cc1 | 7.09
COc1cc(/C=C2/C(=O)c3cccc([N+](=O)[O-])c3C2=O)c(Br)cc1O | 32.2
COc1cccc(C=Nc2cc(C(C)C)c(O)cc2C)c1O | 34.2
O=C1NC(=S)N(c2ccc(F)cc2)C(=O)/C1=C\c1ccoc1 | 18.8
O=c1[nH][nH]c2c(N=Cc3ccccc3O)ccc(F)c12 | 0.87
CC(C(=O)O)N1C(=O)/C(=C/C=C/c2ccco2)SC1=S (stereo unspecified) | 0.39
Nc1c(C(=O)NC2CC2)sc2nc3c(c(-c4ccco4)c12)CC/C3=C/c1ccco1 | < 0.195
O=C1NC(=O)N(c2ccccc2)C(=O)/C1=C\C=C\c1ccccc1 | 42
CCN(CC)C(=O)c1ccc2c(c1)C1C=CCC1C(C(=O)O)N2 (stereo unspecified) | 2.81
CCCCC1=CC2=CC(=O)C(C)(OC(=O)C3CCCC3)C(=O)C2=CO1 (stereo unspecified) | 15.2
Nc1ccc(N2CCCCCC2)cc1 | 1.06
CN(C)c1ccc2cc(S(=O)(=O)O)cc(O)c2c1 | 10.2
O=C(O)C1Nc2c(C(=O)N3CCOCC3)cccc2C2C=CCC12 (stereo unspecified) | 2.02
Oc1ccc2c(c1)C1CCCC1(N1CCOCC1)O2 (stereo unspecified) | 4.31
Cc1ccc(C(=O)N/N=C\c2cc(Br)c(Br)o2)cn1 | 6.24
Cc1ccc(C(=O)O)cc1-c1ccc(/C=C2/NC(=O)N(c3ccccc3)C2=O)o1 | 25.5

SMILES | IC50 [µM]
CNc1ccccc(C(=O)/C=C/c2ccccc2OC)c1=O | 3.9
CN1CCc2cccc3c2[C@H]1Cc1ccc(O)c(O)c1-3 | 0.89
COC/C=C/C1=CC2=CC(=O)C(C)(OC(=O)C3CCCC3)C(=O)C2=CO1 (stereo unspecified) | 2.75
COc1ccc2nc(-c3ccco3)c(-c3ccco3)nc2c1 | 0.35
Oc1ccc(/C=N/N2CCCCC2)c(O)c1O | 19.2
Oc1cc2c(cc1O)[C@H]1c3ccc(O)c(O)c3OC[C@@]1(O)C2 | 0.57
Cc1cnnc2ccc3c(no[n+]3[O-])c12 | 4.71
CC1=NN(c2cccc(C(=O)O)c2)C(=O)/C1=C\C=C\c1ccco1 | 2.89
Cc1nc2cc(-c3ccsc3-n3c(C)ccc3C)[nH]n2c(=O)c1Cl | 2.92
CC(=O)c1ccc(NC(=O)c2ccc3nc(-c4ccco4)c(-c4ccco4)nc3c2)cc1 | 1.38
Cc1nc2cc(N=NC3=C(O)CCCC3=O)ccc2s1 | 1.28
Cc1ccc(SCCN2C(=O)NC(C)(C)C2=O)cc1 | 7.32
Cn1cnnc1SCC(=O)Nc1ncc([N+](=O)[O-])s1 | 36.1
O=C1CCC/C(=N\NC(=O)c2ccc(COc3cccc4cccnc34)cc2)C1 | 17.1
O=C1NC(=S)N(c2ccccc2)C(=O)/C1=C/c1ccco1 | 9.42
Cc1ccccc1NC(=O)c1c(C)[nH]c(=S)c(C#N)c1-c1ccco1 | 18.7
COc1ccc2c(c1)c(=O)oc1cc(OCC(=O)N3CCC(C)CC3)ccc12 | 54.6
Cc1cc(C)c2c(c1)[C@@H]1C=CC[C@@H]1[C@H](c1ccc(S(=O)(=O)N3CCOCC3)cc1)N2 | 19.5
CCCCNC(=O)c1ccc2nc(-c3ccco3)c(-c3ccco3)nc2c1 | 1.19
CCN(CC)c1ccc(N=Cc2ccc(N(CC)CC)cc2O)cc1 | 50.7
Oc1ccc(NCc2ccccc2OCc2ccccc2)cc1 | 3.97
O=C1CC(Nc2ccc(N3CCOCC3)cc2)C(=O)N1c1ccccc1F (stereo unspecified) | 1.65
COc1ccc(N2CCN(c3nc4ccccc4nc3NS(=O)(=O)c3ccccc3)CC2)cc1 | 66.6

SMILES | IC50 [µM]
Cn1cccc1/C=C1\C(=O)NC(=O)N(Cc2ccccc2)C1=O | 11.2
CC(=O)c1ccc2c(c1)C1C=CCC1C(c1ccncc1)N2 (stereo unspecified) | 3.16
Cc1cc(F)ccc1S(=O)(=O)Nc1ccccc1C(=O)Nc1ccc2[nH]c(=O)[nH]c2c1 | 78
CC1=Nc2nc(N3CCCCC3)c(C#N)c3c4c(nc(c23)N1)N(c1ccc(C(C)C)cc1)C(=O)C4 | 5.27
CC1=C(C(=O)Nc2ccccc2)C(c2ccc(C)o2)n2c(s/c(=C\c3ccco3)c2=O)=N1 (stereo unspecified) | 5.34
O=[N+]([O-])c1ccc2c([N+](=O)[O-])ccc3c2c1CC3 | 12.2
O=S(=O)(Nc1nccs1)c1ccc(Nc2nnc(-c3ccccc3)c3ccccc23)cc1 | 84.3
Cc1ccc2c(c1)c(=O)c1c3n2CCN(C(=O)CCl)C3CC1 (stereo unspecified) | 10.8
O=C1[C@@H]2C(Cc3ccc(O)cc3)NC3(C(=O)Nc4ccc(F)cc43)[C@@H]2C(=O)N1c1ccc(F)cc1 (stereo partly specified) | 64.5
CN1C(=O)/C(=C/c2ccco2)SC1=Nc1cccc(C(=O)O)c1 | 19
CCOc1cccc(=O)c2c(C)n(Cc3ccco3)c(C)c12 | 0.45
O=C(c1cc2n(n1)C(C(F)(F)F)CC(c1ccco1)N2)N1CCc2ccccc2C1 (stereo unspecified) | 33.2
O=C(O)c1ccc(-n2cccc2/C=C2/NC(=O)N(c3ccccc3)C2=O)cc1 | 3.34
O=C(OC1CCCCC1)c1ccc2c(c1)C1C=CCC1C(C(=O)O)N2 (stereo unspecified) | 0.51
O=C1CC(/C=C/c2ccco2)=Nc2ccccc2N1 | 1.69
CCc1nc2oc3cc(OC)ccc3c(=O)c2c(=O)n1Cc1ccco1 | 39.4
Cc1ccc(NC(=O)c2ccc(Cl)c(N3C(=O)C=CC3=O)c2)cc1 | 81.2
O=c1cc(CO)oc(C(Nc2ccccn2)c2ccc(F)cc2)c1O (stereo unspecified) | 85.7
C=CCSC1=N/C(=C\C=C\c2ccco2)C(=O)S1 | 1.05
Cc1cc(/C=C2\SC(=S)NC2=O)c(C)n1C | 36.2
O=C1CCCC(O)=C1N=Nc1ccc(C(=O)O)cc1 | 2.72
COc1cc(OC)c2c(O)c3c(c(-c4c5c(c(O)c6c(OC)cc(OC)cc46)CO[C@@H](C)[C@H]5O)c2c1)[C@H](O)[C@H](C)OC3 | 4.61
CCN(C(=O)CN1CCN(c2ccc(O)cc2)CC1)c1c(N)n(Cc2ccccc2)c(=O)[nH]c1=O | 16.4

SMILES | IC50 [µM]
CN1CCN(S(=O)(=O)c2ccc(NC(=S)NC(=O)c3ccc(Cl)cc3)cc2)CC1 | 80.7
O=[N+]([O-])c1cc(CN2CCN(c3cccc(C(F)(F)F)c3)CC2)c2cccnc2c1O | 8.68
CCn1c(SCC(=O)NCc2ccco2)nnc1-c1cccs1 | 95.8
N#CC1=C(N)OC2=C(CCC/C2=C/c2ccoc2)C1c1ccoc1 (stereo unspecified) | 2.64
CN(C)c1nc(N)nc(CSc2nc3c(c(=O)n(C)c(=O)n3C)n2Cc2ccccc2F)n1 | 60.9
O=c1cc(-c2ccccc2Cl)c2c([nH]1)CCC2 | 4.31
O=C(CSc1ccc(Cl)cc1)c1ccco1 | 10.8
Cc1cc(C)c2c(=N)c3ccccc3n(CCCCCCCCn3c4ccccc4c(=N)c4c(C)cc(C)nc43)c2n1 | 1.46
Cc1ccc(CNC(=O)COc2ccc3c(c2)CCC3)cc1 | 44.6
COc1cc(NC(=O)CS(=O)(=O)c2ccc(C)cc2)cc(OC)c1OC | 23.3
CC1=C(C#N)C(=O)N(C2CCS(=O)(=O)C2)C(=O)/C1=C\c1ccco1 (stereo unspecified) | 0.62
CC1=C(SCc2ccccc2)C(=O)c2ccccc2C1=O | 58.1
COC(=O)\C(C(C)=O)=C(/C=C/C=C/C=C/N(C)C)N(C)C | 2.76
O=C(NN1C(=O)/C(=C/C=C/c2ccco2)SC1=S)c1ccncc1 | 2.37
CCN(CC)c1ccc(NC2CC(=O)N(CCc3ccc(OC)cc3)C2=O)cc1 (stereo unspecified) | 6.97
CCCCN1C(=O)/C(=C/C=C/c2ccco2)C(=O)NC1=S | 4.61
COC(=O)c1ccc(CC(=O)c2c(C)cc(O)cc2O)o1 | 2.33
CC(CNc1ccccc1O)C(=O)O (stereo unspecified) | 6.17
O=C(NC(=S)N1CCCc2ccccc21)c1ccccc1 | 28.4
